# Structures can show the parent of a compound that is named as a salt.
# System: Mouse serum IGF-1
# Test: Serum IGF-I radioimmunoassay in CT-26 tumor-bearing mice
# Assay type: in vivo, BALB/c mice
# Conditions: serum collected at sacrifice (day 24); Pegvisomant 5.0 mg/day s.c.; Irinotecan 100 mg/kg on post-inoculation days 7, 14, 21
# Procedure: CT-26 cells (mouse colon carcinoma) are grown in DMEM with 10% fetal bovine serum until the cells are approximately 50% confluent. Trypsin is used to lift adherent cells from the surface of tissue culture flask. The cells are then washed and suspended in Hank's buffered saline solution. BALB/c mice (Jackson Laboratories, Bar Harbor, Me.), 5-8 weeks of age, are used in this example. Initially, the spleen is mobilized using a left flank incision. Direct splenic injections of CT-26 cells is performed (1×10^4 viable cells, 0.05 ml total volume). Wound clips are used to close the incision. This is a syngenic colon cancer model so the host animals are not immunocompromised.
# Injections are administered on the flank opposite the side of the wound clips from the splenic injection using a 25-gauge needle on a tuberculin syringe.
# Mice are sacrificed on day 24. […] Treatment groups are compared using a standard t-test.
# Mouse serum IGF-1 is measured by radioimmunoassay (RIA) after acid-ethanol extraction. Briefly, the serum/extraction mixture is incubated at room temperature for 2 hours, centrifuged, and the supernatant is diluted 1:200 for analysis. IGF-I concentrations are the measured by RIA using a polyclonal rabbit antibody (Nicohls Institute, San Juan Capistrano, Calif.). The assay standards are created with recombinant human IGF-I (Amersham International, Bucks, UK).
row,Compound,serum IGF-I concentration (mean ± standard error) [µg/L]
1,"CCc1c2c(nc3ccc(OC(=O)N4CCC(N5CCCCC5)CC4)cc13)-c1cc3c(c(=O)n1C2)COC(=O)[C@]3(O)CC [Irinotecan, (4S)-4,11-diethyl-4-hydroxy-9-((4-piperidinopiperidino)carbonyloxy)-1H-pyrano (3′,4′:6,7)indolizino(1,2-b)quinoline-3,14(4H,12H) dione hydrochloride]",129 ± 5.9
2,Pegvisomant,50 ± 5.3
